Holding throughout (assay): NCI anticancer screen, dose series, 48 h
Test [1] relates to RPMI-8226 leukemia.
Test [2] concerns LOX IMVI melanoma.
For test [3], the system named is NCI-H460 lung.
Test [4] relates to MALME-3M melanoma.
In test [5] the test system is K-562 leukemia.
Test [6] deals with UO-31 renal.
Test [7] has as its system SW-620 colon.
The subject of test [8] is MCF7 breast.
In test [9] the test system is CAKI-1 renal.
Test [10] relates to A549 NSCLC.
The subject of test [11] is EKVX NSCLC.
Test [12] deals with HL-60(TB) leukemia.
The subject of test [13] is MDA-N.
Test [14] relates to BT-549 breast.

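Results reflect a 48-hour exposure of cells in 96-well plates to compound at five concentrations. TGI: concentration producing complete growth inhibition.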

In the case of `COC(=O)c1c(O)ccc2c1c1c(n2-c2ccc(OC)cc2)C(=O)c2ccccc2C1=O`, the TGI in test [1] is more than 100 µM; in test [2] it was more than 100 µM; in test [3] it was 61.7 µM; in test [4], 58.4 µM; in test [5], more than 100 µM; in [6] it was 31.1 µM. Also, the TGI in test [7] is more than 100 µM; in test [8], 72.4 µM; in [9], 66 µM; in test [10], 32.2 µM; in [11], 39.6 µM; in test [12], more than 100 µM. Moreover, the TGI in test [13] is more than 100 µM; in test [14], 84.9 µM.

Regarding `O=C(n1c(=O)n(-c2ccc(Cl)cc2)c(=O)n1C(=O)C(Cl)(Cl)Cl)C(Cl)(Cl)Cl`, the TGI in test [1], in test [2], in [3], in [4], in [5] and in test [6] was more than 100 µM each time. For the same compound, the TGI in test [7], in [8], in test [9], in [10], in test [11] and in [12] was more than 100 µM in each case. In addition, the TGI in [13] and in test [14] was more than 100 µM each time.

`CN(C)c1ccc(N=Nc2cccc3ncccc23)cc1`: the TGI in test [1] was more than 68.1 µM; in test [2] it was more than 100 µM; in [3], more than 100 µM; in [4], more than 100 µM; in test [5], more than 100 µM; in test [6] it was more than 100 µM. Further, the TGI was more than 100 µM in [7]; more than 100 µM in test [8]; more than 100 µM in [9]; more than 100 µM in [10]; more than 100 µM in test [11]; 35.9 µM in test [12]. Moreover, the TGI in test [13] and in test [14] was more than 100 µM each time.

In the case of `OC(C/C(=N\N=C(/CC(O)(C(F)(F)F)C(F)(F)F)c1ccccc1)c1ccccc1)(C(F)(F)F)C(F)(F)F`, the TGI in [1], in test [2], in test [3], in [4], in test [5] and in test [7] was more than 10 µM throughout. Moreover, the TGI in [8], in test [9], in test [10], in test [11], in test [12] and in test [13] was more than 10 µM throughout. Further, the TGI in test [14] was more than 10 µM.

In the case of `Cc1ccc(/C(O)=C/c2nc3ccccc3[nH]c2=O)c(C)c1`, the TGI is more than 100 µM in test [1]; more than 100 µM in [2]; 46.8 µM in [3]; 98.8 µM in test [4]; more than 100 µM in [5]; 30.6 µM in test [6]. Moreover, the TGI in test [7] was more than 100 µM; in [8] it was more than 100 µM; in test [9], 18.3 µM; in test [10], more than 58.8 µM; in test [11], 56.1 µM; in test [12], more than 100 µM. The TGI is more than 100 µM in [13] and more than 57.5 µM in test [14].

As to `COc1ccc2c(c1)N=C1CSC(c3c(Cl)cccc3[N+](=O)[O-])N1C2` (stereo unspecified), the TGI was 84.6 µM in test [1]; more than 100 µM in [2]; 62.9 µM in test [3]; more than 100 µM in test [4]; more than 100 µM in test [5]; more than 100 µM in test [6]. Moreover, the TGI in [7] was more than 100 µM; in test [8], more than 100 µM; in test [9] it was more than 100 µM; in test [10] it was more than 100 µM; in test [11] it was more than 100 µM; in test [12] it was 79.3 µM. The TGI in test [13] was more than 100 µM; in test [14] it was 62.9 µM.

As for `O=[N+]([O-])c1ccc(NC(=S)Nc2ccccn2)cc1`, the TGI in [1], in test [2], in [3], in [4], in test [5] and in test [6] was more than 100 µM each time. For the same compound, the TGI in test [7] is more than 100 µM; in [8], more than 100 µM; in [9], 18.9 µM; in test [10] it was more than 100 µM; in [11], more than 85.6 µM; in test [12] it was more than 73.7 µM. For the same compound, the TGI in test [13] and in test [14] was more than 100 µM throughout.

Turning to `N#C/C(=C\c1ccc(Br)cc1)c1nc(-c2cc3ccccc3oc2=O)cs1`, the TGI is more than 50 µM in test [1]; more than 50 µM in test [2]; more than 50 µM in test [3]; 27.6 µM in test [4]; more than 50 µM in [5]; more than 50 µM in [6]. Besides, the TGI in test [7], in test [8], in test [9], in test [10], in test [11] and in [12] was more than 50 µM in each case. For the same compound, the TGI was more than 50 µM in test [13] and 14.5 µM in test [14].

Consider `Clc1ccccc1-c1nnc2c(-c3ccccc3)nc3ccccc3n12`, for which the TGI in [1], in test [2], in test [3], in test [4], in test [5] and in test [7] was more than 100 µM each time. In addition, the TGI in test [8], in [10], in test [11], in test [12], in [13] and in test [14] was more than 100 µM each time.

Turning to `CCOC(=O)c1nc2ccccc2nc1Oc1ccc(OC)cc1`, the TGI in test [1], in test [2], in test [3], in [4], in test [5] and in [6] was more than 100 µM each time. Moreover, the TGI in [7], in [8], in test [10], in test [11], in test [12] and in test [13] was more than 100 µM each time. This compound showed a TGI in test [14] of more than 100 µM.

These data come from PubChem BioAssay (NCI).
